Molecular target: Human recombinant GSK-3β (Homo sapiens (Human), UniProt P49841)
Assay: Inhibition of GSK-3β (Kinase-Glo luminescent kinase assay)
Format: biochemical
Conditions: 1 μM ATP, 25 μM substrate, 30 minutes at 30° C.
Procedure: Human recombinant GSK-3β was purchased from Millipore (Millipore Iberica S.A.U.) The prephosphorylated polypeptide substrate was purchased from Millipore (Millipore Iberica SAU). Kinase-Glo Luminescent Kinase Assay was obtained from Promega (Promega Biotech Iberica, SL). ATP and all other reagents were from Sigma-Aldrich. Assay buffer contained 50 mM 4-(2-hydroxyethyl)-1-piperazineethanesulfonic acid (HEPES) (pH 7.5), 1 mM ethylenediaminetetraacetic acid (EDTA), 1 mM ethylene glycol tetraacetic acid (EGTA), and 15 mM magnesium acetate. The method developed by Baki was followed [Baki et al. Assay and Drug Development Technologies 2007, 5(1),75-83] to analyze the inhibition of GSK-3β. Kinase-Glo assays were performed in assay buffer using white 96-well plates. In a typical assay, 10 μL (10 μM) of test compound (dissolved in DMSO at 1 mM concentration and diluted in advance in assay buffer to the desired concentration) and 10 μL (20 ng) of enzyme were added to each well followed by 20 μL of assay buffer containing 25 μM substrate and 1 μM adenosine triphosphate (ATP). […] After a 30 minutes incubation at 30° C., the enzymatic reaction was stopped with 40 μL of Kinase-Glo reagent. Glow-type luminescence was recorded after 10 minutes using a Fluoroskan Ascent multimode reader.
The activity is proportional to the difference of the total and consumed ATP.

Sequence of Human recombinant GSK-3β (P49841 whole entry): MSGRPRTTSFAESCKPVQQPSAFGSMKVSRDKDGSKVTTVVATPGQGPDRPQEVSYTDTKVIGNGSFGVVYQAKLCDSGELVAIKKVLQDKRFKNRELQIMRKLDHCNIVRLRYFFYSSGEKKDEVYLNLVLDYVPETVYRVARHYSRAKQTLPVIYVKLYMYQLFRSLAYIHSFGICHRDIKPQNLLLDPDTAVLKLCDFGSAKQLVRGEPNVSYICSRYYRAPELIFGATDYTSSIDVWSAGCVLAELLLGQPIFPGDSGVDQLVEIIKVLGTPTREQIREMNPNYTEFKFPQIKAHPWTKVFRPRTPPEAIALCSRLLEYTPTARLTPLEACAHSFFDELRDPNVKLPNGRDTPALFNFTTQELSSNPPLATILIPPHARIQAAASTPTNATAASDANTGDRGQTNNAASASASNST

- IC50: 4.34 ± 0.63 µM
Compound: CCCNC1=NC(c2ccc(F)cc2)NC(=O)N1 (stereo not shown) [Example 6, 4-(4-fluorophenyl)-6-(propylamino)-3,4-dihydro-1,3,5-triazin-2(1H)-one]

Source: patent US9975861B2, “Dual inhibitor compounds for use in the treatment of neurodegenerative disorders and alzheimer's disease” (FONDAZIONE ISTITUTO ITALIANO DI TECNOLOGIA, priority 2014, dated 2018)
